Reference: patent publication US10314847B2, “Scalarane sesterterpenoid, pharmaceutical composition and topoisomerase II and Hsp90 inhibitor for treating cancer, and use and preparation method thereof” (NATIONAL DONG HWA UNIVERSITY, priority 2017, dated 2019)

Columns and labels:
human topoisomerase II = molecular target: T1, human topoisomerase II (Homo sapiens, UniProt P11388); experiment: Assay of topoisomerase II catalytic inhibitors and poisons (cell-free pHOT1 DNA relaxation/cleavage); assay type: biochemical
T1 construct: purchased Topogen
T1 sequence (P11388 whole entry): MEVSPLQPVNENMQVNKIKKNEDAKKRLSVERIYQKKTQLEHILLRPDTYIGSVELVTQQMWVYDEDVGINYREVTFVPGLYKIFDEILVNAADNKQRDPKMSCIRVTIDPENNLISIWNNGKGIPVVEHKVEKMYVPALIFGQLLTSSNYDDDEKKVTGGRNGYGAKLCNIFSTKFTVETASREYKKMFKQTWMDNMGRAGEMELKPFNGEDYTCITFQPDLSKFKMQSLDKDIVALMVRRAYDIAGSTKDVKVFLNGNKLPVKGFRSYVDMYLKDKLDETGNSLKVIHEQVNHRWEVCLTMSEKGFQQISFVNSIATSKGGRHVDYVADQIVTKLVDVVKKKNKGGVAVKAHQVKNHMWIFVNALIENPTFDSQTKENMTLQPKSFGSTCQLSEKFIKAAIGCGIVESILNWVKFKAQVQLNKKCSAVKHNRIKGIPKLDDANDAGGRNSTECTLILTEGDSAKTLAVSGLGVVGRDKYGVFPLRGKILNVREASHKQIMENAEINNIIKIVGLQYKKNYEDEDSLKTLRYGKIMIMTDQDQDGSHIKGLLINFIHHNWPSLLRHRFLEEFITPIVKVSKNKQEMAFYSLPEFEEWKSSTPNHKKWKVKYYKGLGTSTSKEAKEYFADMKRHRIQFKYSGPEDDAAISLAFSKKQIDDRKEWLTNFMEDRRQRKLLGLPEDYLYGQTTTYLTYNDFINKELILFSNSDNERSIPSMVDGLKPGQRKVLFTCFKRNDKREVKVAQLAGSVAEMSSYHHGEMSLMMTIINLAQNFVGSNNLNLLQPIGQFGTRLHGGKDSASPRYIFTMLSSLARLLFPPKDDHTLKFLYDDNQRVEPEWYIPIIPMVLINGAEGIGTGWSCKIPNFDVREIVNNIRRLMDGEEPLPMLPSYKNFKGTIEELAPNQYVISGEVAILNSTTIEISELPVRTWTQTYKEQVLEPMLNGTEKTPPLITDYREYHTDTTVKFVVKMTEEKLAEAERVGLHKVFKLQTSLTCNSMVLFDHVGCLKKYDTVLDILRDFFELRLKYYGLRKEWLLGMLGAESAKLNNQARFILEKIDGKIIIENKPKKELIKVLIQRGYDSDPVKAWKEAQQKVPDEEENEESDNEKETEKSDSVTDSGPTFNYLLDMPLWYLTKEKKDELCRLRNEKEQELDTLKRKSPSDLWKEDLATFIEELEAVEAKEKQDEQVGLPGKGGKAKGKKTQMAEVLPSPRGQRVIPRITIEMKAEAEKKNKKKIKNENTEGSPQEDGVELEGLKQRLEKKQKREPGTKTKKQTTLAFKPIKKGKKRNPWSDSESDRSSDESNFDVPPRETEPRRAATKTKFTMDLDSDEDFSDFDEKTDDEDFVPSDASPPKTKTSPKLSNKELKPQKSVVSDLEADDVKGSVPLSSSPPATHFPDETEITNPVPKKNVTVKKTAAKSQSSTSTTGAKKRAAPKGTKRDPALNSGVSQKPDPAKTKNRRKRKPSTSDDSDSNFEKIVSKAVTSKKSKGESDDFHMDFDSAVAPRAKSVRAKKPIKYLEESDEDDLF
Experimental: Assay of Topoisomerase II Catalytic Inhibitors and Poisons:
Reactions were terminated by adding 2 μL of 10% SDS to facilitate trapping the enzyme in a cleavage complex, followed by the addition of 2.5 μL of proteinase K (50 μg/mL) to digest the bound protein (incubated at 37° C. for 15 minutes) and finally by adding 0.1 volume of the sample loading dye. The DNA products were analyzed via electrophoresis through vertical 2% agarose gels at 2 voltage/cm in 0.5×TAE buffer. Gels were stained with ethidium bromide (EtBr) and photographed using an Eagle Eye II system (Stratagene, La Jolla, Calif., U.S.A.). The quantitative analysis of the DNA Topo II activity was performed.

Molt 4 = test system: Molt 4
Text: The cell lines were obtained from the American Type Culture Collection (ATCC, Manassas, Va., U.S.A.) or the Japanese Collection of Research Biosources (JCRB) Cell Bank (Japan). […] Antibodies against XIAP, NFκB (p65), GADD, CDK 4, HSF 1, ATF 6 and β-tubulin were obtained from Santa Cruz Biotechnology (Santa Cruz, Calif., U.S.A.). The Hybond ECL transfer membrane and ECL Western blotting detection kits were obtained from Amersham Life Sciences (Amersham, U.K.).
Several cancer cell lines including leukemia K562, Molt 4, and HL 60 cells, prostate cancer LNCaP cells, colon cancer DLD-1 cells and breast cancer T-47D cells were used to evaluate the antiproliferative activity (referring to Table 2).
It is known that mitochondria are critical intracellular loci of ROS production and ROS exposure can lead to the […] opening. The antioxidant, microsomal GST1, in the inner mitochondrial membrane can interact with the mitochondrial permeability transition (MPT) regulator proteins, such as ANT and/or CypD, to form a MPT pore contributing to mitochondria-mediated cell death. In addition, mitochondrial homeostasis of tumor cells is regulated by an organelle-specific Hsp90 chaperone network.

Molt 4 cells [1] = experiment: JC-1 staining, mitochondrial membrane potential disruption; assay type: cell-based, human; details: Molt 4 cells, 0.0625, 0.125 and 0.25 μg/mL, 24 hours, dose-dependent
Experimental: Determination of Reactive Oxygen Species (ROS) Generation, Calcium Accumulation, and Matrix Metalloproteinase (MMP) Disruption:
MMP disruption, calcium accumulation and ROS generation were detected with the JC-1 cationic dye (5 μg/mL), the fluorescent calcium indicator (Fluo 3, […]) and the carboxy derivative of fluorescein (carboxy-H2DCFDA, […]), respectively. In brief, the treated cells were labeled with a specific fluorescent dye for 30 minutes. After labeling, cells were washed with PBS and resuspended in PBS at a concentration of 1×10^6 cells/mL before analysis via flow cytometry.

Molt 4 cells [2] = experiment: Annexin V/PI apoptosis assay; assay type: cell-based, human; details: Molt 4 cells, 0.0625, 0.125 and 0.25 μg/mL, 24 hours, dose-dependent
Experimental: Annexin V/Propidium Iodide (PI) Apoptosis Assay:
The externalization of phosphatidylserine (PS) and membrane integrity were quantified using an annexin V-fluorescein isothiocyanate (annexin V-FITC) staining kit. In brief, 10^6 cells were grown in 35 mm diameter plates and were labeled with annexin V-FITC (10 μg/mL) and PI (20 μg/mL) prior to harvesting. After labeling, all plates were washed with a binding buffer and harvested. Cells were resuspended in the binding buffer at a concentration of 2×10^5 cells/mL before analysis by flow cytometer FACS-Calibur (Becton-Dickinson, San Jose, Calif., U.S.A.) and CellQuest software. Approximately 10,000 cells were counted for each determination.

γH2AX = experiment: Western blot of γH2AX expression in Molt 4 cells; assay type: cell-based, human; details: Molt 4 cells, 0.0625, 0.125 and 0.25 μg/mL, 24 hours
Experimental: Protein expression was analyzed with Western blotting. GAPDH was used as the loading control.
In order to confirm whether the DNA damage-induced by the marine terpenoids of the present invention involved the inhibition of Topo II activity, a cell-free DNA cleavage assay using an enzyme-mediated negatively supercoiled pHOT1 plasmid DNA was applied. […] These marine terpenoids suppressed Topo II activity, resulting in the inhibition of supercoiled DNA relaxation in a dose-dependent manner (FIG. 2(A)). […] To determine whether the apoptotic mechanism of compounds 1 to 3 affects γH2AX (as a biomarker of DNA damage) induction, Western blot analysis was employed to examine the activation of γH2AX.

[3] = test system: human Molt 4 tumor xenograft; experiment: Human leukemia Molt 4 cells xenograft animal model; assay type: in vivo, mice; details: 1.14 μg/g intraperitoneal, 33 days
Experimental: FIG. 3(A) is a diagram showing the effect of compound 3 on the tumor growth in an in vivo human Molt 4 tumor xenograft animal model. Tumor-bearing nude mice were intraperitoneally injected with solvent control (DMSO) and compound 3 (1.14 μg/g) for 33 days. […] Control, n=8; compound 3, n=7.
FIG. 3(B) is a diagram showing the effect of compound 3 on the body weight in the in vivo human Molt 4 tumor xenograft animal model. Tumor-bearing nude mice were intraperitoneally injected with solvent control (DMSO) and compound 3 (1.14 μg/g) for 33 days. The body weight were measured every other day, and the results are expressed as mean±SD. Control, n=8; compound 3, n=7.
Human Leukemia Molt 4 Cells Xenograft Animal Model:
Six-week-old male immunodeficient athymic mice were purchased from the National Laboratory Animal and Research Center (Taipei, Taiwan). All of the animals were maintained under standard laboratory conditions (temperature 24-26° C., 12-12 hour dark-light circle) and fed with a laboratory diet and water. Molt 4 cells (1×10^6) resuspended in 0.2 mL PBS were injected subcutaneously (s.c.) into the right flank of each mouse, and tumor growth was monitored every day. […] Tumor size was measured three times a week using calipers and tumor volumes were calculated according to the standard formula: width^2×length/2.

Row | SMILES | IC50 (human topoisomerase II; cell-free system, read-out: Topo II activity IC50 (converted)) [nM] | Cytotoxic effect IC50, Molt 4 (Molt 4) [µg/mL] | Mitochondrial membrane potential (JC-1) (Molt 4 cells [1]) | Apoptotic population (annexin-V/PI) (Molt 4 cells [2]) | Expression of γH2AX (DNA damage biomarker) (γH2AX) | inhibition at 0.08 µg/mL (human topoisomerase II; 0.08 μg/mL) [%] | inhibition at 0.312 µg/mL (human topoisomerase II; 0.312 μg/mL) [%] | inhibition at 1.25 µg/mL (human topoisomerase II; 1.25 μg/mL) [%] | inhibition at 5 µg/mL (human topoisomerase II; 5 μg/mL) [%] | inhibition at 20 µg/mL (human topoisomerase II; 20 μg/mL) [%] | Topo II activity IC50 (human topoisomerase II; cell-free system) [µg/mL] | Mice body weights versus control [3]
1 | CC[C@@H](O)CC(=O)O[C@@H]1C[C@@H]2[C@@]3(C)CCC[C@](C)(CC)[C@@H]3CC[C@@]2(C)[C@@H]2CC=C(C(C)=O)[C@H](C=O)[C@@]12C (relative stereo) [Compound 2, 12β-(3′β-hydroxypentanoyloxy)-20,24-dimethyl-24-oxo-scalara-16-en-25-al] | 719 | 0.30 | disruption in mitochondrial membrane potential | increase in the apoptotic population | significantly enhanced the expression of γH2AX in a dose-dependent manner |  |  |  |  |  |  | 
2 | CC(C)=CCC/C(C)=C/CC/C(C)=C/CC/C(C)=C/CC1=CC(=O)C=CC1=O [Compound 3, 2-tetraprenil-1,4-benzochinone] |  | 0.34 | disruption in mitochondrial membrane potential | increase in the apoptotic population | activation of DNA damage was not observed | 7 | 13 | 28 | 90 | 98 | 0.43 | no significant difference
